In one assay the target is T1, MC4R (Rattus norvegicus, UniProt P70596).
T1 construct: from tissue; host or cells: living Sprague Dawley rats (brain)
Briefly: Feeding response to MT II after ODN or saline infusion. The assay is classed as in vivo, Sprague Dawley rats. How it is done:
To further investigate this relationship, antisense suppression of FIT in Sprague Dawley rats was again performed and these animals' responses to administration of the α-MSH analog MT II, a synthetic agonist of the MC4R and known suppressor of feeding. MT II effects on food intake and body weight in saline and jumbled ODN-treated control rats, as well as in FIT antisense-treated rats was measured.

The next assay deals with MC3R and MC4R. The note with it: ICV infusion, mice (Murphy et al. 1998); cited from earlier work.
The next assay deals with FIT gene expression. The assay is described as follows: FIT gene expression in the hypothalamus of monogenic mouse models of obesity. It is filed as in vivo. The conditions noted are these: leptin-treated ob/ob mice, mean ± SEM. The protocol: To investigate the molecular pathway via which FIT affect food intake, FIT gene expression was measured in the hypothalamus of several different monogenic mouse models of obesity. […] FIT gene expression was not altered in other genetic models of obesity such as leptin deficient ob/ob mice, MC3R knockout mice and MC4R knockout mice.

The next assay addresses T2, SH3GL2; endophilin 1 (human, UniProt Q99962 1-352).
T2 construct: Prey clone from a human brain cDNA library; not shown: not specified
Briefly: yeast two-hybrid screen of a human brain cDNA library (14 clones). An excerpt: The inventors utilised a yeast two-hybrid system which incorporates modifications by Chevray and Nathans (1992), and Vidal et al. (1996) to screen a human brain cDNA library.

Marks after values point to notes of the source that are not given here.

T1 sequence (P70596 whole entry): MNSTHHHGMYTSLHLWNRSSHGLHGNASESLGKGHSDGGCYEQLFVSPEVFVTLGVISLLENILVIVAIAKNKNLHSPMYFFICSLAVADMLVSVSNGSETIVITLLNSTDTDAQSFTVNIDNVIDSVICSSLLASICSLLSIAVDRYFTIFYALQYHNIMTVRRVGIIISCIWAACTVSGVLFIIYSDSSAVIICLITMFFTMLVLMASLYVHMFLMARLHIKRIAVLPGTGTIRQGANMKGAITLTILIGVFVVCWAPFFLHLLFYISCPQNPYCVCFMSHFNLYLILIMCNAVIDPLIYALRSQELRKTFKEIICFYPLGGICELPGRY
T2 sequence (Q99962 whole entry): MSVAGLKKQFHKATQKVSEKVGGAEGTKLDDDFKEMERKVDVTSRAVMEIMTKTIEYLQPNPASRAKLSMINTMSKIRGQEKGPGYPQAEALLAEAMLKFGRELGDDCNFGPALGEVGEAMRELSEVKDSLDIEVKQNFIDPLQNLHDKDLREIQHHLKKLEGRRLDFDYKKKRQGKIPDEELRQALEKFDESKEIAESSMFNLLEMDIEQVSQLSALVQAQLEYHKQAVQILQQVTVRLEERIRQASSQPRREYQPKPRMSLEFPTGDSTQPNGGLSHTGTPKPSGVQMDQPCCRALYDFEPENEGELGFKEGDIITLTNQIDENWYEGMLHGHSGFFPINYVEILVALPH

Regarding MT II, on MC4R (24 hr food intake post minus pre injection, mean ± SEM), the “Δ FI” value is reported as −0.04 ± 0.01 g/g BW. The “24 hr FI post injection” value at MC4R (food intake after MT II or vehicle injection, mean ± SEM) is on record as 0.03 ± 0.01^a g/g BW. Moreover, the “24 hr FI pre injection” value on MC4R (food intake, during ICV infusion, before MT II or vehicle injection, mean ± SEM) stood at 0.07 ± 0.01 g/g BW. Moreover, on MC4R (not statistically significantly different from control groups), the “inhibitory effect on food intake in rats pre-treated with FIT antisense ODN versus control groups” value was “tended to have a greater inhibitory effect”. In the assay with MC3R and MC4R, the “effect on food intake” value is on record as “decrease food intake”.

B1: Leptin: leptin given to leptin deficient ob/ob mice (protein, UniProt P41160 22-167, looked up)
Leptin: VPIQKVQDDTKTLIKTIVTRINDISHTQSVSAKQRVTGLDFIPGLHPILSLSKMDQTLAVYQQVLTSLPSQNVLQIANDLENLRDLLHLLAFSKSCSLPQTSGLQKPESLDGVLEASLYSTEVVALSRLQGSLQDILQQLDVSPEC
With B1, the FIT gene expression in the assay on FIT gene expression came to 1.3 ± 0.3 arbitrary units.

B2: FIT-NP (FIT N-terminal plus proline-rich region), yeast two-hybrid bait (other, not shown: small tags and cut ends)
chain: MMEGLKKRTRKAFGIRKKEKDTDSTGSPDRDGMQPSPHELPYHSKAECAREGGKKASKKSNGAPNGFYAEIDWERYNSPELDEEGYSIRPEEPGSTKGKHFYSSSESEEEEESHKKFNIKIKPLQSKDILKNAATVDELKASIGNIALSPSPVRKSPRRSPGAIKRNLSSEEVARPRRSTPTPELTSKKPLDDTLALAPLFGPPLESAFDGHKTEVLLDQPEIWGSGQPVNPSMESPKLARPFPTGTPPPLPPKTVPATPPRTGSPLTVATGNDQAATEAKIEKPPSISDLDSIFGPVLSPKSVAVNTEETWVHFSDASPEHVTPELTPREKVVTPPAASDIPADSPTPGPPGPPGSAGPPGPPGPRNVPSPLNLEEVQKKVAEQTFIKDDYLETLSSPKECGLGQRETPPPPPPPTYRTVVSSPGPGSGSGTGTASGASSPARPATPLVPCSCSTPPPPPPRPPSRPKLPPGKPGVGDVSRPFSPPIHSSSPPPIAPL
notes: Truncated fragment of FIT used as bait in a yeast two-hybrid screen of a human brain cDNA library; also called AGT-121
As to B2, the binding result with SH3GL2; endophilin 1 was “binds”.

The values are drawn from patent US20080105961A1, “Ligands of the Molecule Fit (Agt-121) and their Pharmaceutical Use” (priority 2004, published 2008).
